What all share (assay type): functional
For test [1], the system named is A549. The experiment in a line: Cytotoxicity against human A549 cells. As to conditions: read-out: ED50 (the source's name).
The subject of test [2] is UMUC3. The experiment in a line: Cytotoxicity against human UM-UC-3 cells. As to conditions: read-out: ED50 (the source's name).
Test [3] concerns HT-29. The experiment in a line: Cytotoxicity against human HT-29 cells. Conditions: read-out: ED50 (the source's name).
The subject of test [4] is PC-3. The experiment in a line: Cytotoxicity against human PC3 cells. Conditions: read-out: ED50 (the source's name).
In test [5] the test system is MIA PaCa-2. The experiment in a line: Cytotoxicity against human MIAPaCa2 cells. As to conditions: read-out: ED50 (the source's name).
Test [6] is described as follows: Cytotoxicity against human A4982LM cells. Conditions: read-out: ED50 (the source's name).
Test [7] in a line: Cytotoxicity against human MDA231 cells. Conditions: MDA-MB-231, read-out: ED50 (the source's name).
Test [8] is described as follows: Cytotoxicity against human FDIGROV cells. As to conditions: read-out: ED50 (the source's name).

A value given as a limit tells only on which side of the number the result lay.

Turning to `Cc1c(C)[n+](Cc2ccccc2)cn1Cc1ccccc1.[Cl-]` [LEPIDILINE A], the EC50 in test [1], in test [2], in test [3], in test [4], in test [5] and in test [6] was more than 10 µg/mL each time. Besides, the EC50 was more than 10 µg/mL in test [7] and 7.39 µg/mL in test [8].
With `Cc1c(C)[n+](Cc2ccccc2)c(C)n1Cc1ccccc1.[Cl-]` [LEPIDILINE B], the EC50 in test [1] is more than 10 µg/mL; in test [2] it was 6.47 µg/mL; in test [3] it was more than 10 µg/mL; in test [4], more than 10 µg/mL; in test [5], 1.38 µg/mL; in test [6], more than 10 µg/mL. The EC50 in test [7] amounted to 1.66 µg/mL; in test [8], 5.26 µg/mL.

The values are drawn from ChEMBL document CHEMBL1146575, “Imidazole alkaloids from Lepidium meyenii” (2003).
